Results published in patent publication US20110144125A1, “Anti-Arrhythmia Agents, Methods of Their Use, Methods of Their Identification and Kits Therefore” (THE UAB RESEARCH FOUNDATION, priority 2008, published 2011).
Where a name gives a salt, the structure may show the parent alone. Values belong to the compound of their own block, whether it stands above or below them.

Experiments:
[1] = system: rat left atrial appendage; experiment: 2-APB-induced spontaneous mechanical activity (SMA/SMEs) in isolated superfused rat left atria / left atrial appendage; conditions: for prevention of electromechanical instability in model of abnormal automaticity (FIG. 6): polyphenol then 2-APB; for concentration at which SMA is reduced (reversal): recorded ˜10 min after addition; for time to reversal of SMA after exposure: 20 μM 2-APB-induced SMA; for effect on sporadic ectopic activity (SMA): 2-APB-treated appendages, known anti-arrhythmic agents, lidocaine data not shown
Experimental: Left atria were isolated from male Sprague-Dawley rats (325 to 400 g) under IP pentobarbital anesthesia (0.1 g/kg). Isolated left atria were superfused at 30° C. in Krebs-Henseleit (KH) buffer of the following mM composition: NaCl, 118; NaHCO3, 27; KCl, 4.8; MgSO4, 1.2; KH2PO4, 1.0; CaCl2, 1.8; and glucose, 11.1. Nearly isometric left atrial forces of contraction were measured as described.
Isolated superfused left atria were paced at 3 Hz. 2-APB was added to atrial superfusates from 0.015 or 0.15M DMSO stock solutions to achieve concentrations of 0, 2, 7.5, 15, or 22 μM (n=5 to 10 atria per concentration). Changes in atrial mechanical force were recorded during a subsequent 15 min superfusion.
Two groups of 5 to 6, 3 Hz paced atria were superfused in KH and exposed to 0 or 15 μM 2-APB for 10 min. The pacing stimulus was interrupted for 5 min and the number of spontaneous mechanical events (SMEs), defined as increases in mechanical force occurring in the absence of pacing, were measured as was the postrest potentiation response (PRP).
To determine whether diastolic interval affected the interaction between 2-APB and left atria, atrial pacing was decreased to 0.1 Hz, and 0, 7.5, or 22 μM 2-APB was added to the superfusate (n=6-8 per group). Superfusions continued for 15 min, and changes in atrial mechanical function were observed.
To establish whether SMA was reversible, atria (n=7) were paced at 0.1 Hz, exposed to 15 μM 2-APB for 10 min, and washed with KH. The effect of removing 2-APB on atrial mechanical function was recorded.
To test whether an anion transport inhibitor affected SMA, atria (n=7) were paced at 0.1 Hz in KH and exposed to 15 μM 2-APB. Following the appearance of SMA, they were titrated with 100 to 400 μM DIDS for 3 to 5 min at each concentration. Whether SMA occurred at the end of each titration period was recorded.
(§1) Left atria (n=10 per group) were paced at 0.1 Hz and treated with (i) 20 μM 2-APB for 10 min, (ii) with 30 nM isoproterenol for 5 min followed by 20 μM 2-APB for 10 min, and (iii) with 3 μM forskolin for 5 min followed by 20 μM 2-APB for 10 min.
The appendages then were titrated with increasing concentrations of 2-APB, and SMA was measured and recorded.
(§2) To determine the anti-arrhythmic activity of gossypol, isolated rat left atrial appendage and right ventricular muscle strips were used as model systems, as described above. Heart muscle was exposed to 20 μM 2-APB for 10 min to induce SMA, and rates of SMA were recorded as a percentage of initial SMA. The muscles then were titrated with up to 5 increasing concentrations of gossypol. Rates of SMA were recorded ˜10 min after the addition of concentration of the polyphenol.
To determine whether EGCG can prevent arrhythmia, rat left atrial appendages (n=9) were exposed to 20 μM 2-APB and rates of SMA were recorded. Groups of muscles (n=6 per) were pre-treated with 30 μM EGCG for 10 min following which they were exposed to 2-APB. Rates of SMA were recorded 10 min later.
as §2, with “whether EGCG is effective to reverse arrhythmia,” for “the anti-arrhythmic activity of gossypol,”, “Rat left atrial appendages were” for “Heart muscle was”, “left atrial appendages” for “muscles”, “the following polyphenols: EGCG, gossypol, resveratrol, and quercetin.” for “gossypol.”
To determine whether EGC can prevent arrhythmia, left atrial appendages (n=9) were exposed to 20 μM 2-APB and rates of SMA were recorded. Groups of appendages (n=6 per) were pre-treated with 30 μM EGC for 10 min following which they were exposed to 2-APB.

rat left atria = experiment: Spontaneous tachycardic activity (STA) in isolated rat left atria exposed to 2-APB under increased calcium load
Experimental: Male Sprague-Dawley rats (325-400 g) were anesthetized with intra-peritoneal pentobarbital (0.1 g/kg). Their right and left atria were isolated, superfused at 30° C. in Krebs-Henseleit buffer, and nearly isometric forces of contraction were measured from these muscles (Wolkowicz et al., 2002). 2-APB was prepared as a 150 mM dimethyl sulfoxide stock.
Left atria (n=8 per group) were paced at 3 Hz and (i) titrated with 0 to 30 nM isoproterenol (Ahlquist, 1970) or (ii) exposed to 3 μM forskolin (Laurenza et al., 1980). Left atrial force and frequency of contraction, the time to peak tension and relaxation times were recorded after a 3-5 min exposure to forskolin or to any concentration of isoproterenol. The 3 Hz pacing stimulus was interrupted at the end of these protocols to measure SMEs.
as §1
Left atrial contraction and relaxation times were recorded at these five times, the pacing stimulus was stopped and rates of SMA were recorded. To determine whether initial pacing rate affects left atrial response to 2-APB and isoproterenol, left atria (n=5-7 per group) were paced at 3 Hz and (i) remained untreated for 15 min, (ii) were treated with 20 μM 2-APB alone for 10 min, or (ii) were treated with 30 nM isoproterenol for 5 min followed by 20 μM 2-APB for 10 min. Atrial mechanical function was measured at these four times; the pacing stimulus then was stopped and rates of SMA were recorded.
Left atria (n=6 per group) were paced at 3 Hz, titrated with 0 to 300 nM (−)BayK 8644 ([…]-1,4-Dihydro-2,6-dimethyl-5-nitro-4-[2-(trifluormethyl)phenyl]-3-pyridinecarboxylic acid methyl ester; Franckowiak et al. 1985) or FPL-64176 ((2,5-Dimethyl-4-[2-(phenylmethyl)benzoyl]-111-pyrrole-3-carboxylic acid methyl ester; Zheng et al., 1991) and their mechanical function and rates of SMA were recorded after a 5 min exposure to any concentration of slow calcium channel activator.
Left atria (n=8 per group) were paced at 0.1 Hz, exposed to 300 nM BayK 8644 or FPL-64176 for 5 min followed by 20 μM 2-APB for 10 min. Atrial mechanical function was recorded at this time; the pacing stimulus then was stopped and rates of SMA were recorded.
To test whether ryanodine receptor calcium leak produces SMA, left atria (n=6 per group) were paced at 0.1 Hz, treated with 0 or 300 nM BayK 8644 for 5 min, and then exposed to 600 nM ryanodine (Sutko et al., 1997). Atrial mechanical function and rates of SMA were recorded 20 min after exposure to ryanodine.
Rates of SMA were measured 5 min later.
Left atria (n=7) were paced at 3 Hz, treated with 120 μM ouabain (Illanes and Marshall, 1964), and any change in mechanical function was recorded at a new steady state, ˜10 min later. These atria were exposed to 20 μM 2-APB and their mechanical function and rates of SMA were recorded 10 min later.
3 Hz-paced left atria (n=9 per group) were superfused (i) in Krebs-Henseleit alone or (ii) they were treated with 20 μM 2-APB for 10 min, (iii) with 300 nM BayK 8644 for 10 min and with 20 μM 2-APB for 10 min, or (iv) they were treated with 300 nM BayK 8644 and 20 μM 2-APB for 10 min, then with 70 μM zatebradine (3-[3-[[2-(3,4-Dimethoxyphenyl)ethyl]methylamino] propyl]-1,3,4,5-tetrahydro-7,8,-dimethoxy-2H-3-benzazepin-2-one hydrochloride) for 10 min (Baruscotti et al., 2005). Pacing was interrupted at these times and rates of SMA were recorded.

[2] = pre-treated with 30 μM for 10 min, then 20 μM 2-APB for 10 min
[3] = 20 μM 2-APB for 10 min, then titration

Compound: 2-methoxy antimycin A [2MAA]
SMEs in 2MAA-treated appendages ([1]; pre-treated with 80 μM 2MAA, 15 μM 2-APB): none

Compound: Oc1cc(O)c2c(c1)O[C@@H](c1cc(O)c(O)c(O)c1)[C@@H](O)C2 [EGC, (−)-cis-2-(3,4,5-trihydroxyphenyl)-3,4-dihydro-1(2H)-benzopyran-3,5,7-triol]
prevention of electromechanical instability in model of abnormal automaticity (FIG. 6) [1]: prevent the electromechanical instability
SMEs after pre-treatment (prevention of SMA) [1, 2]: no SMEs

Compound: O=C(O[C@H]1Cc2c(O)cc(O)cc2O[C@H]1c1cc(O)c(O)c(O)c1)c1cc(O)c(O)c(O)c1 [EGCG, (−)-cis-2-(3,4,5-Trihydroxyphenyl)-3,4-dihydro-1(2H)-benzopyran-3,5,7-triol 3-gallate]
concentration at which SMA is reduced (reversal) [1, 3]: ≥ 20 µM
reversal of SMA ([1]; 20 μM 2-APB, unpaced, 40 μM EGCG added to the muscle bath): SMA ceased
time to reversal of SMA after exposure [1]: ≤ 10 min
prevention of electromechanical instability in model of abnormal automaticity (FIG. 6) [1]: prevent the electromechanical instability
SMEs after pre-treatment (prevention of SMA) [1, 2]: no SMEs

Compound: CCOC(=O)C1=C(N)Oc2ccc(Br)cc2C1C(C#N)C(=O)OCC (stereo not shown) [HA14-1, ethyl 2-amino-6-bromo-4-(1-cyano-2-ethoxy-2-oxoethyl)-4H-chromene-3-carboxylate]
effect on SMA when added after 2-APB (reversal) ([1]; HA14-1 added 10 min after exposure to 2-APB): no effect on SMA
SMEs after pre-treatment (prevention of SMA) ([1]; pre-treated with 30 μM HA14-1, 2-APB 15 μM and above, vs untreated appendages): significantly fewer SMEs

IC50 (rat left atria; Rattus norvegicus, BayK 8644 and 2-APB, read-out: IC50 for reversal of STA): ~15 µM
Compound: COc1ccc(CCCOC(Cn2ccnc2)c2ccc(OC)cc2)cc1 (stereo not shown) [SKF-96365, 1-[2-(4-Methoxyphenyl)-2-[3-(4-methoxyphenyl)propoxy]ethyl-1H-imidazole hydrochloride]
prevention and reversal of SMA ([1]; data not shown): prevents and reverse SMA
reversal of STA (rat left atria; 0.1 Hz-paced, BayK 8644 and 2-APB, ˜50 μM SKF-96365): STA was suppressed
prevention of STA (rat left atria; data not shown): prevents STA

Compound: O=C(NCC1CCCCN1)c1cc(OCC(F)(F)F)ccc1OCC(F)(F)F (stereo not shown) [flecainide]
effect on sporadic ectopic activity (SMA) [1]: suppress this arrhythmic activity
effect on sporadic ectopic activity (SMA) ([1]; listed as Flecainide): suppresses SMA

Compound: C=C[C@@]1(C)CC(=O)[C@]2(O)[C@@]3(C)[C@@H](O)CCC(C)(C)[C@@H]3[C@H](O)[C@H](OC(C)=O)[C@@]2(C)O1 [forskolin]
rate of STA (SMA frequency) in presence of 2-APB and calcium loading agent (rat left atria; 20 μM 2-APB plus 30 nM isoproterenol, 3 μM forskolin, 300 nM BayK 8644, 300 nM FPL-64176 or 120 μM ouabain, absence of pacing, 30° C.): 231±5 contractions/min

Compound: Cc1cc2c(C(C)C)c(O)c(O)c(C=O)c2c(O)c1-c1c(C)cc2c(C(C)C)c(O)c(O)c(C=O)c2c1O [gossypol, 7-(8-formyl-1,6,7-trihydroxy-3-methyl-5-propan-2-ylnaphthalen-2-yl)-2,3,8-trihydroxy-6-methyl-4-propan-2-ylnaphthalene-1-carbaldehyde]
concentration at which SMA dropped to zero (reversal) [1, 3]: ≥ 20 µM
concentration at which SMA is reduced (reversal) [1, 3]: ≥ 10 µM
time to reversal of SMA after exposure [1]: ≤ 10 min
prevention of electromechanical instability in model of abnormal automaticity (FIG. 6) [1]: prevent the electromechanical instability

Compound: CCN(CC)CC(=O)Nc1c(C)cccc1C [lidocaine]
effect on sporadic ectopic activity (SMA) [1]: suppress this arrhythmic activity

Compound: O=c1c(O)c(-c2ccc(O)c(O)c2)oc2cc(O)cc(O)c12 [quercetin, 2-(3,4-dihydroxyphenyl)-3,5,7-trihydroxy-4H-chromen-4-one]
prevention of electromechanical instability in model of abnormal automaticity (FIG. 6) [1]: prevent the electromechanical instability
SMEs after pre-treatment (prevention of SMA) [1, 2]: no SMEs

Compound: COc1ccccc1OCC(O)CN1CCN(CC(=O)Nc2c(C)cccc2C)CC1 (stereo not shown) [ranolazine]
effect on sporadic ectopic activity (SMA) [1]: prevent the sporadic ectopic activity
effect on tachycardic activity (STA) (rat left atria; high calcium loads, 2-APB and 300 nM (−)BayK 8644, 80 μM ranolazine): suppresses, but does not completely prevent

Compound: Oc1ccc(C=Cc2cc(O)cc(O)c2)cc1 [resveratrol, 5-[2-(4-hydroxyphenyl)ethenyl]benzene-1,3-diol]
prevention of electromechanical instability in model of abnormal automaticity (FIG. 6) [1]: prevent the electromechanical instability
SMEs after pre-treatment (prevention of SMA) [1, 2]: no SMEs
